Reference: PubChem BioAssay (NCI)
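48-hour exposure; five concentrations; linearly interpolated endpoints. GI50 marks 50% less growth. TGI: concentration producing complete growth inhibition.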

Assays:
Assay in all cases: NCI anticancer screen, dose series, 48 h; in the data active = GI50 below about 0.43 µM; inactive = the rest
HCT-15 colon = tested on: HCT-15 colon
SK-MEL-2 melanoma = tested on: SK-MEL-2 melanoma
LOX IMVI melanoma = tested on: LOX IMVI melanoma
KM12 colon = tested on: KM12 colon
DU-145 prostate = tested on: DU-145 prostate
OVCAR-5 ovarian = tested on: OVCAR-5 ovarian
786-0 renal = tested on: 786-0 renal
MDA-N = tested on: MDA-N
EKVX NSCLC = tested on: EKVX NSCLC
RXF 393 renal = tested on: RXF 393 renal
SK-MEL-28 melanoma = tested on: SK-MEL-28 melanoma
SF-268 CNS = tested on: SF-268 CNS
UACC-62 melanoma = tested on: UACC-62 melanoma
SK-OV-3 ovarian = tested on: SK-OV-3 ovarian
HT29 colon = tested on: HT29 colon
HL-60(TB) leukemia = tested on: HL-60(TB) leukemia
IGROV1 ovarian = tested on: IGROV1 ovarian
UO-31 renal = tested on: UO-31 renal
M14 melanoma = tested on: M14 melanoma
NCI/ADR-RES ovarian = tested on: NCI/ADR-RES ovarian
RPMI-8226 leukemia = tested on: RPMI-8226 leukemia
OVCAR-3 ovarian = tested on: OVCAR-3 ovarian
ACHN renal = tested on: ACHN renal
SK-MEL-5 melanoma = tested on: SK-MEL-5 melanoma
K-562 leukemia = tested on: K-562 leukemia
MOLT-4 leukemia = tested on: MOLT-4 leukemia
SW-620 colon = tested on: SW-620 colon
HOP-62 NSCLC = tested on: HOP-62 NSCLC
NCI-H460 lung = tested on: NCI-H460 lung
HCC-2998 colon = tested on: HCC-2998 colon
MDA-MB-435 = tested on: MDA-MB-435
A549 NSCLC = tested on: A549 NSCLC
SNB-19 CNS = tested on: SNB-19 CNS
HOP-92 NSCLC = tested on: HOP-92 NSCLC
SNB-75 CNS = tested on: SNB-75 CNS
SN12C renal = tested on: SN12C renal
CAKI-1 renal = tested on: CAKI-1 renal
U251 CNS = tested on: U251 CNS
OVCAR-4 ovarian = tested on: OVCAR-4 ovarian
NCI-H23 lung = tested on: NCI-H23 lung
MALME-3M melanoma = tested on: MALME-3M melanoma
CCRF-CEM leukemia = tested on: CCRF-CEM leukemia
HS 578T breast = tested on: HS 578T breast
SR leukemia = tested on: SR leukemia
MDA-MB-231 breast = tested on: MDA-MB-231 breast
T-47D breast = tested on: T-47D breast
NCI-H226 lung = tested on: NCI-H226 lung
OVCAR-8 ovarian = tested on: OVCAR-8 ovarian
HCT-116 colon = tested on: HCT-116 colon
UACC-257 melanoma = tested on: UACC-257 melanoma
BT-549 breast = tested on: BT-549 breast
A498 renal = tested on: A498 renal
NCI-H522 lung = tested on: NCI-H522 lung
SF-539 CNS = tested on: SF-539 CNS
SF-295 CNS = tested on: SF-295 CNS
TK-10 renal = tested on: TK-10 renal
PC-3 prostate = tested on: PC-3 prostate
MCF7 breast = tested on: MCF7 breast
COLO 205 colon = tested on: COLO 205 colon

NC(=S)NNC(=S)NC(=O)c1ccco1
> 10 µM: TGI (HCT-15 colon) | TGI (SK-MEL-2 melanoma) | TGI (LOX IMVI melanoma) | TGI (KM12 colon) | TGI (DU-145 prostate) | TGI (OVCAR-5 ovarian) | TGI (786-0 renal) | TGI (MDA-N) | TGI (EKVX NSCLC) | TGI (RXF 393 renal) | TGI (SK-MEL-28 melanoma) | TGI (SF-268 CNS) | TGI (UACC-62 melanoma) | TGI (SK-OV-3 ovarian) | TGI (HT29 colon) | TGI (HL-60(TB) leukemia) | TGI (IGROV1 ovarian) | TGI (UO-31 renal) | TGI (M14 melanoma) | TGI (NCI/ADR-RES ovarian) | TGI (RPMI-8226 leukemia) | TGI (OVCAR-3 ovarian) | TGI (ACHN renal) | TGI (SK-MEL-5 melanoma) | TGI (K-562 leukemia) | TGI (MOLT-4 leukemia) | TGI (SW-620 colon) | TGI (HOP-62 NSCLC) | TGI (NCI-H460 lung) | TGI (HCC-2998 colon) | TGI (MDA-MB-435) | TGI (A549 NSCLC) | TGI (SNB-19 CNS) | TGI (HOP-92 NSCLC) | TGI (SNB-75 CNS) | TGI (SN12C renal) | TGI (CAKI-1 renal) | TGI (U251 CNS) | TGI (OVCAR-4 ovarian) | TGI (NCI-H23 lung) | TGI (MALME-3M melanoma) | TGI (CCRF-CEM leukemia) | TGI (HS 578T breast) | TGI (SR leukemia) | TGI (MDA-MB-231 breast) | TGI (T-47D breast) | TGI (NCI-H226 lung) | TGI (OVCAR-8 ovarian) | TGI (HCT-116 colon) | TGI (UACC-257 melanoma)

O=C(Nc1ccc(Br)cc1)Nc1nn(C(=O)Nc2ccc(Br)cc2)c2ccccc12
> 63.9 µM: TGI (SF-268 CNS)
54 µM: TGI (SK-OV-3 ovarian)
28.7 µM: TGI (SNB-75 CNS)
> 85.3 µM: TGI (MALME-3M melanoma)
43.6 µM: TGI (U251 CNS)
> 93 µM: TGI (T-47D breast)
inactive: GI50 (HCT-15 colon) > 74.2 µM | GI50 (SK-MEL-2 melanoma) 23.7 µM | GI50 (LOX IMVI melanoma) 64.4 µM | GI50 (KM12 colon) > 88.8 µM | GI50 (DU-145 prostate) 28.9 µM | GI50 (OVCAR-5 ovarian) > 100 µM | GI50 (BT-549 breast) 34.5 µM | GI50 (786-0 renal) 34.3 µM | GI50 (EKVX NSCLC) 40.3 µM | GI50 (A498 renal) 31.4 µM | GI50 (SK-MEL-28 melanoma) 96.9 µM | GI50 (SF-268 CNS) 17.6 µM | GI50 (NCI-H522 lung) 31 µM | GI50 (UACC-62 melanoma) 36.5 µM | GI50 (SK-OV-3 ovarian) 16.9 µM | GI50 (HT29 colon) > 100 µM | GI50 (HL-60(TB) leukemia) 12 µM | GI50 (SF-539 CNS) 29.3 µM | GI50 (IGROV1 ovarian) 52.6 µM | GI50 (UO-31 renal) > 100 µM | GI50 (M14 melanoma) > 70.8 µM | GI50 (NCI/ADR-RES ovarian) 55.6 µM | GI50 (RPMI-8226 leukemia) > 51.7 µM | GI50 (OVCAR-3 ovarian) 33.9 µM | GI50 (ACHN renal) 61.9 µM | GI50 (SK-MEL-5 melanoma) > 100 µM | GI50 (K-562 leukemia) 7.64 µM | GI50 (MOLT-4 leukemia) 2.49 µM | GI50 (SF-295 CNS) 18 µM | GI50 (TK-10 renal) 39.2 µM | GI50 (SW-620 colon) > 38.6 µM | GI50 (HOP-62 NSCLC) 26.4 µM | GI50 (NCI-H460 lung) 34.1 µM | GI50 (HCC-2998 colon) > 100 µM | GI50 (MDA-MB-435) > 100 µM | GI50 (A549 NSCLC) 51.5 µM | GI50 (SNB-19 CNS) 23.6 µM | GI50 (PC-3 prostate) > 51.6 µM | GI50 (HOP-92 NSCLC) 24.4 µM | GI50 (SNB-75 CNS) 8.26 µM | GI50 (SN12C renal) 43.9 µM | GI50 (CAKI-1 renal) 44.2 µM | GI50 (U251 CNS) 13.4 µM | GI50 (OVCAR-4 ovarian) 22.6 µM | GI50 (NCI-H23 lung) 29.1 µM | GI50 (MALME-3M melanoma) > 44.3 µM | GI50 (CCRF-CEM leukemia) 7.08 µM | GI50 (HS 578T breast) 13.7 µM | GI50 (SR leukemia) 30.5 µM | GI50 (MCF7 breast) 29.1 µM | GI50 (MDA-MB-231 breast) 27.2 µM | GI50 (T-47D breast) 28.1 µM | GI50 (NCI-H226 lung) 27.7 µM | GI50 (OVCAR-8 ovarian) 36.2 µM | GI50 (HCT-116 colon) 16.9 µM | GI50 (COLO 205 colon) > 100 µM | GI50 (UACC-257 melanoma) > 77.6 µM
66.1 µM: TGI (SF-295 CNS)
> 45.9 µM: TGI (RXF 393 renal)
> 35.6 µM: TGI (K-562 leukemia)
> 93.7 µM: TGI (BT-549 breast)
> 77.6 µM: TGI (OVCAR-3 ovarian)
> 100 µM: TGI (HCT-15 colon) | TGI (SK-MEL-2 melanoma) | TGI (LOX IMVI melanoma) | TGI (KM12 colon) | TGI (DU-145 prostate) | TGI (OVCAR-5 ovarian) | TGI (786-0 renal) | TGI (EKVX NSCLC) | TGI (SK-MEL-28 melanoma) | TGI (NCI-H522 lung) | TGI (UACC-62 melanoma) | TGI (HT29 colon) | TGI (SF-539 CNS) | TGI (IGROV1 ovarian) | TGI (UO-31 renal) | TGI (M14 melanoma) | TGI (NCI/ADR-RES ovarian) | TGI (RPMI-8226 leukemia) | TGI (ACHN renal) | TGI (SK-MEL-5 melanoma) | TGI (TK-10 renal) | TGI (SW-620 colon) | TGI (NCI-H460 lung) | TGI (HCC-2998 colon) | TGI (MDA-MB-435) | TGI (A549 NSCLC) | TGI (PC-3 prostate) | TGI (SN12C renal) | TGI (NCI-H23 lung) | TGI (SR leukemia) | TGI (MCF7 breast) | TGI (MDA-MB-231 breast) | TGI (NCI-H226 lung) | TGI (OVCAR-8 ovarian) | TGI (HCT-116 colon) | TGI (COLO 205 colon) | TGI (UACC-257 melanoma)
> 84 µM: TGI (CAKI-1 renal)
> 22.8 µM: TGI (CCRF-CEM leukemia)
81 µM: TGI (SNB-19 CNS)
55.8 µM: TGI (HS 578T breast)
> 66.8 µM: TGI (OVCAR-4 ovarian)
> 65.5 µM: TGI (HOP-92 NSCLC)
> 32.2 µM: TGI (HL-60(TB) leukemia)
> 81 µM: TGI (A498 renal)
> 72.8 µM: TGI (HOP-62 NSCLC)

COc1cc2cc(C(=O)N3CC(CCl)c4c3cc(NC(=O)C(C)Nc3c([N+](=O)[O-])cc(C(=O)NCCN(C)C)cc3[N+](=O)[O-])c3ccccc43)[nH]c2c(OC)c1OC (stereo not given)
1.01 µM: TGI (EKVX NSCLC)
0.457 µM: TGI (KM12 colon)
0.27 µM: TGI (MALME-3M melanoma)
0.0297 µM: TGI (HOP-92 NSCLC)
0.356 µM: TGI (MDA-MB-435)
0.285 µM: TGI (SW-620 colon)
0.342 µM: TGI (MDA-MB-231 breast)
0.544 µM: TGI (OVCAR-5 ovarian)
0.433 µM: TGI (OVCAR-3 ovarian)
0.16 µM: TGI (HCC-2998 colon)
0.192 µM: TGI (COLO 205 colon)
0.127 µM: TGI (MCF7 breast)
2.5 µM: TGI (HCT-15 colon)
1.16 µM: TGI (PC-3 prostate)
0.649 µM: TGI (BT-549 breast)
0.419 µM: TGI (HT29 colon)
0.359 µM: TGI (UACC-257 melanoma)
0.371 µM: TGI (MDA-N)
0.374 µM: TGI (M14 melanoma)
0.232 µM: TGI (SK-MEL-5 melanoma)
0.362 µM: TGI (A549 NSCLC)
3.35 µM: TGI (UO-31 renal)
0.283 µM: TGI (HOP-62 NSCLC)
0.178 µM: TGI (NCI-H460 lung)
0.909 µM: TGI (SNB-19 CNS)
1.03 µM: TGI (DU-145 prostate)
0.159 µM: TGI (SK-MEL-2 melanoma)
2.23 µM: TGI (SK-OV-3 ovarian)
0.572 µM: TGI (HCT-116 colon)
0.235 µM: TGI (786-0 renal)
0.992 µM: TGI (A498 renal)
0.34 µM: TGI (NCI-H226 lung)
0.279 µM: TGI (NCI-H522 lung)
0.643 µM: TGI (SN12C renal)
0.551 µM: TGI (OVCAR-4 ovarian)
1.44 µM: TGI (TK-10 renal)
